Numbered stars: 1 amine (or outer) side, 2 acyl side, 3 side chain; on linkers, the order of the positions; unused ones are H or OH. Bridge positions count the residues as written; N and C are the ends. Square brackets hold non-standard residues; d marks the D form. Peptide text beside a SMILES is read from it. ξ: configuration not given here. ξαMeNle(6-ylidene) = CC(CCCC=[*:3])(N[*:1])C(=O)[*:2]; Nle = CCCC[C@H](N)C(=O)O
How the values were obtained:
Format in all cases: cell-based
[1] = biological target: T1, β-catenin-BCL9/B9L complexes (Homo sapiens, UniProt P35222); assay: Anti-BCL9 and B9L co-immunoprecipitation (disruption of native complexes); details: cellular treatment
T1 construct: SAH-BCL9B disrupts native β-catenin-BCL9/B9L complexes; endogenous in cells; Colo320 or MM1S by context
T1 sequence (P35222 2-781): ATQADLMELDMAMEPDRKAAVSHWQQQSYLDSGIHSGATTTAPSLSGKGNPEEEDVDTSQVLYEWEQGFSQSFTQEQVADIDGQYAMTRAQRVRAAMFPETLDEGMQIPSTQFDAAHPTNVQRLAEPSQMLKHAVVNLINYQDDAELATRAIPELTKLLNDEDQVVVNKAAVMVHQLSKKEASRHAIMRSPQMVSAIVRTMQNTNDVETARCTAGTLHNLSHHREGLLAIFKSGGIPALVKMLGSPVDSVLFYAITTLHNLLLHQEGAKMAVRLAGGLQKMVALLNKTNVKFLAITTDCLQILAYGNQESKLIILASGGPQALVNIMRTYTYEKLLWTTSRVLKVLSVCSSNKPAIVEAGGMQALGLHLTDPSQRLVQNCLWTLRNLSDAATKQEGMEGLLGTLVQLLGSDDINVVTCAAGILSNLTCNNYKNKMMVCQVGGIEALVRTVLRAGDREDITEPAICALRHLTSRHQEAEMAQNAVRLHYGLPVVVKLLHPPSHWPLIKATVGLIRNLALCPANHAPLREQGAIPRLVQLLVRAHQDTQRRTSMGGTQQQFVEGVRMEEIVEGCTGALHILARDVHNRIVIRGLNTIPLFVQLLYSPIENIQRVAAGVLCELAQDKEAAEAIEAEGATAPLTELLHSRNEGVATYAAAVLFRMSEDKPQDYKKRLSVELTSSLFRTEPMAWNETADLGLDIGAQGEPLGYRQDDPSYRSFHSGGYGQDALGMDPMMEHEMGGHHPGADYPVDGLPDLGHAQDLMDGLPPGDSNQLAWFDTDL
Source text: (§1) Western blotting, performed as described (Sukhdeo, K. et al. Proc Natl Acad Sci USA 104, 7516-21 (2007)), employed the following primary antibodies: BCL9 (6109) (Mani, M. et al. Cancer Res 69, 7577-86 (2009)), BCL9 (ab37305, Abcam), B9L (AF4967, R&D Systems), β-catenin (CAT5-H10, Zymed), FITC (ab19224, Abcam), Actin-HRP (C-11, Santa Cruz), Caspase3 (#9662, Cell Signaling), IκBα (#9242, Cell signaling), PARP (#9542, Cell Signaling), E-cadherin (#3195, Cell Signaling), and Lamin B (sc-6217, Santa Cruz). Horseradish peroxidase conjugated secondary antibodies were purchased from Santa Cruz and SouthernBiotech. Co-immunoprecipitation was performed as described (Walensky, L. D. et al. Science 305, 1466-70 (2004)). Briefly, cells were lysed in 50 mM Tris, 150 mM NaCl, and 1% CHAPS buffer containing protease and phosphatase inhibitors. Lysates were precleared with Protein A/G PLUS-agarose beads (Santa Cruz Biotechnologies) for 3 hours followed by overnight incubation at 4° C. with the respective antibodies. Agarose A/G beads were then added for 4 h, pelleted, and washed as described (Walensky, L. D. et al. Science 305, 1466-70 (2004)). See results in FIG. 1D, FIG. 1H, FIG. 2A, FIG. 8.

[2] = system: Wnt-dependent reporter activity (TOP-FLASH) in Colo320 cells; assay: Wnt-specific TCF reporter gene assay (TOP-FLASH dual luciferase); details: Colo320, normalized to Renilla
Protocol: Luciferase activity was measured using the Dual Luciferase Reporter Assay System (Promega) as previously described (Sukhdeo, K. et al. Proc Natl Acad Sci USA 104, 7516-21 (2007)). To measure Wnt or NFκB reporter activity, Colo320 cells were transfected with TOP-FLASH, FOP-FLASH plasmid (Millipore Corporation) or NFκB luciferase reporter (Stratagene), along with an internal Renilla control plasmid (hRL-null). Transfection was accomplished using FuGENE (Roche) according to the manufacturer's protocol. The results were normalized to control Renilla activity. The reported data represent the average of three independent transfection experiments performed in triplicate. See results in FIG. 9, FIG. 10.

β-catenin = biological target: T2, β-catenin (Homo sapiens, UniProt P35222); assay: Anti-FITC / anti-β-catenin co-immunoprecipitation from lysates of peptide-treated cells; details: FITC and β-catenin immunoprecipitation, in situ
T2 construct: endogenous in cells; host or cells: Colo320
T2 sequence (P35222 1-781): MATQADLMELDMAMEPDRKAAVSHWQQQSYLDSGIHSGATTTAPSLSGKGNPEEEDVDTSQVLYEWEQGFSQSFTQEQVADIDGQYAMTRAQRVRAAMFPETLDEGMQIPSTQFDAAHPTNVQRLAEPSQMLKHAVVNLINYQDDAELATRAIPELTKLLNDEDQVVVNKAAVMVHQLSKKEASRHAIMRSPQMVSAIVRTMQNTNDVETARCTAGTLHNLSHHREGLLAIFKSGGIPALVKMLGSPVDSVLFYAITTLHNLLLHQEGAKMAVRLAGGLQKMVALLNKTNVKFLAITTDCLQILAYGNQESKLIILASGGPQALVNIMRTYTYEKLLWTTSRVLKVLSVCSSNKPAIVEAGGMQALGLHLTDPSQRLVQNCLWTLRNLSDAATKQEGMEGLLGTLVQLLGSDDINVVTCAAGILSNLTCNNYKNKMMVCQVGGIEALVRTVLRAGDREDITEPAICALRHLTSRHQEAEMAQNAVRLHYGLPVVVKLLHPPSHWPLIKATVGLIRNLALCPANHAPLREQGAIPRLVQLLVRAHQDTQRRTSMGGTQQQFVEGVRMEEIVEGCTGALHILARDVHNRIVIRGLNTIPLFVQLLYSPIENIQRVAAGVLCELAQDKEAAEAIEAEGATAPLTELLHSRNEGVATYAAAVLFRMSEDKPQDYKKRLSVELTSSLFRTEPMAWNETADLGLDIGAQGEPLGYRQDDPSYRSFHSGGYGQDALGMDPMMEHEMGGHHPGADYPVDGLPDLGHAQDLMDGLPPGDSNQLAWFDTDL
Source text: as §1

| Compound | disruption of the association of β-catenin with BCL9 and B9L [1] | reduction of Wnt-specific TCF reporter activity [2] | β-catenin interaction by co-immunoprecipitation (β-catenin) |
| --- | --- | --- | --- |
| CCCC[C@H](NC(=O)[C@H](CCCNC(=N)N)NC(=O)[C@H](CCC(N)=O)NC(=O)[C@@H](NC(=O)C1(C)CCCC=CCCCC(C)(NC(=O)[C@H](CC(C)C)NC(=O)[C@H](CO)NC(=O)[C@H](CCCNC(=N)N)NC(=O)[C@H](CCC(=O)O)NC(=O)[C@H](CCCNC(=N)N)NC(=O)[C@H](Cc2c[nH]cn2)NC(=O)[C@H](CCC(=O)O)NC(=O)[C@H](CC(C)C)NC(=O)[C@H](CCC(N)=O)NC(=O)[C@H](CCC(=O)O)NC(=O)[C@H](CCC(N)=O)NC(=O)[C@H](CO)NC(=O)[C@H](CC(C)C)NC(C)=O)C(=O)N[C@@H]([C@@H](C)O)C(=O)N[C@@H](CC(C)C)C(=O)N[C@@H](CCCNC(=N)N)C(=O)N1)[C@@H](C)CC)C(=O)N[C@@H](CC(C)C)C(=O)N[C@@H](Cc1ccccc1)C(N)=O (stereo partly drawn) [SAH-BCL9B] (Ac-LSQEQLEHRERSL[ξαMeNle(6-ylidene)]TLR[ξαMeNle(6-ylidene)]IQR[Nle]LF-NH2; staple 14-18) | dose-responsively disrupted | ~50% | most effective β-catenin interactor in situ |
| SAH-BCL9B(R359E): SEQ ID NO: 7: LSQEQLEHEERSLXTLRXIQRBLF; reverse polarity point mutant, negative control of SAH-BCL9B | no effect | no effect | impaired β-catenin interaction |

— US12534501B2, “Targeting deregulated Wnt signaling in cancer using stabilized alpha-helices of BCL-9” (Dana-Farber Cancer Institute, Inc., priority 2011, dated 2026)
